Data set [1] deals with PARP inhibitor-resistant breast cancer (HCC1937) cells. Put plainly: Cell viability (MTT) in PARP inhibitor-resistant cancer cell line. The class given is cell-based, human. The note with it: Homo sapiens, Olaparib 2 μM alone, 96 hours, read-out: cancer cells viable. On the procedure: Specifically, 2.5×10^3 PARP inhibitor-resistant breast cancer (HCC1937) cells were cultured in a 96-well plate for 24 hours under 37° C. and 5% CO2 conditions.
The cells were then divided into the following groups and treated with each peptide according to Examples at GI50 concentration alone or in combination. • 1) Untreated group • 2) Group treated with PARP inhibitor (Olaparib) at 2 μM concentration • 3) Group treated with ADPR at 1 mM concentration alone • 4) Groups treated with each peptide of Examples 1 to 6 at 25 μM concentration alone • 5) Groups treated with each CPP-peptide of Examples 15 to 20 at 10 μM concentration alone • 6) Group treated in combination with ADPR at 1 mM concentration and each peptide of Examples 1 to 6 at 25 μM concentration (Combination 1) • 6) Group treated in combination with ADPR at 1 mM concentration and CPP-peptide of Examples 15 to 20 at 10 μM concentration (Combination 2)
(§1) The cells were then cultured for another 96 hours under 37° C. and 5% CO2 conditions, and 10 μl of 3-(4,5-dimethylthiazol-2-yl)-2,5-diphenyltetrazolium bromide reagent was added to each well and reacted for 1 hour. The reagent was removed at the end of the reaction, 200 μl of dimethyl sulfoxide was then added to each well, and the absorbance was measured to determine the cell viability.

For data set [2], the system named is ovarian cancer (OVCAR-3) cells. The data set can be described thus: OVCAR-3 cell viability (MTT), peptides and NAD^+ alone or in combination. The class given is cell-based, human. The following applies: NAD^+ 1 mM alone, 96 hours. On the procedure: Specifically, 2.5×10^3 ovarian cancer (OVCAR-3) cells were cultured in a 96-well plate for 24 hours under 37° C. and 5% CO2 conditions, and then divided into the following groups and treated with each peptide according to Examples at GI50 concentration alone or in combination. • 1) Untreated group • 2) Group treated with NAD^+ at 1 mM concentration alone • 3) Group treated with peptide of Example 2 at 25 μM concentration alone • 4) Group treated with CPP-peptide of Example 16 at 10 μM concentration alone • 5) Group treated in combination with NAD^+ at 1 mM concentration and peptide of Example 2 at 25 μM concentration (Combination 1) • 6) Group treated in combination with NAD^+ at 1 mM concentration and CPP-peptide of Example 16 at 10 μM concentration (Combination 2)
as §1

Another data set relates to MDA-MB-231 cancer cells. The data set can be described thus: MDA-MB-231 cell viability (MTT), sustained release derivative alone or in combination. The following applies: 96 hours. The class given is cell-based. As for the experimental part: Each of 2.5×10^3 human-derived pancreatic cancer (Aspc-1), kidney cancer (Caki-1), breast cancer (HCC1937), liver cancer (HepG2), lung cancer (H1975), colon cancer (HCT116), ovarian cancer (OVCAR-3), brain cancer (U87) cells were cultured in a 96-well plate under 37° C. and 5% CO2 conditions for 24 hours, and then treated with the sustained release derivative alone. In addition, MDA-MB-231 cancer cells were divided into the following groups and treated with each formulation at GI20 concentration alone or in combination. • 1) Untreated group • 2) Group treated with sustained-release derivative alone at 5 μM concentration • 3) Group treated with ADPR at 2 mM concentration alone • 4) Group treated with NAD^+ at 2 mM concentration alone • 5) Groups treated with various anti-cancer drugs alone (Cisplatin at 2 μM, Docetaxel at 1 μM, Dichloroacetate at 3 mM, Doxorubicin at 2 μM, Sorafenib at 2 μM, Osimertinib at 10 nM, Trastuzumab at 0.2 μM, Bevacizumab at 0.2 nM, Tamoxifen at 0.2 μM, or Olaparib at 1 μM) • 6) Group treated in combination with ADPR at 2 mM concentration and a sustained-release derivative at 5 μM concentration • 7) Group treated in combination with ADPR at 2 mM concentration, NAD^+ at 2 mM concentration, and a sustained-release derivative at 5 μM concentration • 8) Group treated in combination with ADPR at 2 mM concentration, a sustained-release derivative at 5 μM concentration, and various anti-cancer drugs (same concentration as Group 5 above).
The cells were then cultured for another 96 hours at 37° C. and 5% CO2, and 10 μl of 3-(4,5-dimethylthiazol-2-yl)-2,5-diphenyltetrazolium bromide reagent was added to each well and reacted for 1 hour. The reagent was removed at the end of the reaction, 200 μl of dimethyl sulfoxide was then added to each well, and the absorbance was measured to determine the cell viability.

A short description of data set [3]: Normal cytotoxicity of sustained release derivative alone or in combination (MTT). The class given is cell-based. The note with it: human, MRC5 cells (normal), sustained-release derivative alone, read-out: viability of normal cells compared to the untreated group. On the procedure:
In a 96-well plate, 2.5×10^3 human-derived normal MRC5 cells were cultured for 24 hours under 37° C. and 5% CO2 conditions, and then treated with the sustained-release derivative and ADPR alone or in combination.
The cells were then cultured for another 96 hours at 37° C. and 5% CO2, and 10 μl of 3-(4,5-dimethylthiazol-2-yl)-2,5-diphenyltetrazolium bromide reagent was added to each well and reacted for 1 hour. The MTT reagent was removed at the end of the reaction, 200 μl of dimethyl sulfoxide was then added to each well, and the absorbance was measured to determine the cell viability.

Data on 3 compounds can be found in patent US20250250310A1, “COMBINATION THERAPY WITH ADP-RIBOSE BINDING PEPTIDE AND ADP-RIBOSE FOR PREVENTION OR TREATMENT OF CANCER” (PEARLSINMIRES CO., LTD., priority 2023, published 2025).

Structures are written as SMILES. Where a SMILES comes first, the peptide text is derived from it. [ ]: non-standard residue; d: D form. The star is where a group is joined. Stearoyl = CCCCCCCCCCCCCCCCCC(=O)*; AEEA = NCCOCCOCC(=O)O A value given as a limit tells only on which side of the number the result lay.

In the case of `O=C(c1cc(Cc2n[nH]c(=O)c3ccccc23)ccc1F)N1CCN(C(=O)C2CC2)CC1` [Olaparib, reference compound], the viability at 2 µM in data set [1] is approximately 80%.

Regarding `NC(=O)c1ccc[n+]([C@@H]2O[C@H](COP(=O)(O)OP(=O)(O)OC[C@H]3O[C@@H](n4cnc5c(N)ncnc54)[C@H](O)[C@@H]3O)[C@@H](O)[C@H]2O)c1` [NAD^+, nicotinamide adenine dinucleotide], the “cell growth / viability vs control group” value in data set [2] is on record as “not significantly different from the control group”. The viability at 2000 µM in the data set on MDA-MB-231 cancer cells (Homo sapiens, single treatment (derivative 5 μM, ADPR 2 mM, NAD^+ 2 mM, anti-cancer drugs)) worked out at 80%.

For the compound `CCCCCCCCCCCCCCCCCC(=O)NCCCC[C@H](NC(=O)[C@H](CCCNC(=N)N)NC(=O)[C@H](CCCNC(=N)N)NC(=O)[C@H](CCCNC(=N)N)NC(=O)CNC(=O)[C@H](Cc1c[nH]cn1)NC(=O)[C@H](CCC(=O)O)NC(=O)[C@H](CC(N)=O)NC(=O)[C@H](CCCNC(=N)N)NC(=O)[C@H](CCCNC(=N)N)NC(=O)[C@H](Cc1ccc(O)cc1)NC(=O)[C@H](CCC(N)=O)NC(=O)[C@@H](NC(=O)[C@H](CCSC)NC(=O)[C@H](CC(N)=O)NC(=O)[C@H](CCC(=O)O)NC(=O)[C@H](CC(C)C)NC(=O)[C@H](CC(=O)O)NC(=O)[C@H](C)NC(=O)[C@@H](NC(=O)[C@H](Cc1ccc(O)cc1)NC(=O)[C@H](CC(C)C)NC(=O)[C@H](Cc1ccccc1)NC(=O)[C@H](CCC(N)=O)NC(=O)[C@@H]1CCCN1C(=O)[C@H](CCCNC(=N)N)NC(=O)[C@H](CCCNC(=N)N)NC(=O)[C@H](CCCNC(=N)N)NC(=O)[C@H](CCC(N)=O)NC(=O)[C@H](CCCNC(=N)N)NC(=O)[C@H](CCCNC(=N)N)NC(=O)[C@H](CCCCN)NC(=O)[C@H](CCCCN)NC(=O)[C@H](CCCNC(=N)N)NC(=O)CNC(=O)COCCOCCN)C(C)C)C(C)C)C(=O)N[C@H](C(=O)N[C@@H](CCCCN)C(=O)N[C@@H](CCCNC(=N)N)C(N)=O)[C@@H](C)CC` [sustained-release derivative] (H-[AEEA]GRKKRRQRRRPQFLYVADLENMVQYRRNEHGRRRK(Stearoyl)IKR-NH2; C-terminus assumed), the “cytotoxicity, triple-drug combination” value in the data set on MDA-MB-231 cancer cells (sustained-release derivative 5 μM + ADPR 2 mM + NAD^+ 2 mM or various anti-cancer drugs) was “significantly superior cytotoxicity”. In addition, the “cytotoxicity, combination with ADPR” value in the data set with MDA-MB-231 cancer cells (sustained-release derivative 5 μM + ADPR 2 mM) is “showed cytotoxicity”. Besides, the viability at 96 h in data set [3] is not below 90%.
